The values below come from patent publication US11497751B2, “Modulators of Rho-associated protein kinase” (Redx Pharma PLC, priority 2018, dated 2022).

The subject of one assay is T cells. The settings on record: oral administration of KD025, healthy human subjects, ex-vivo stimulation of T-cells; cited from earlier work.
Assay [1] concerns the target T1, N-terminal 6His-tagged ROCK2 catalytic domain 11-552 (Homo sapiens, UniProt O75116).
T1 construct: N-terminal 6His-tagged ROCK2 catalytic domain 11-552; 6His (N); purchased Dundee University, UK; host or cells: baculovirus expression system
The experiment in a line: ROCK2 binding activity: ROCK2 inhibition, ADP-Glo Kinase Assay. To be noted: 1.25 nM ROCK2, 100 μM long S6 peptide, 20 μM ATP; 1 hour pre-incubation; read-out: ADP-Glo kinase activity assay ROCK2 Category. Format: biochemical. Summed up:
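1.25 nM baculovirus-expressed ROCK2 pre-incubated 1 h with compound (1% DMSO), then 100 μM long S6 peptide and 20 μM ATP added for 1 h; 50 mM HEPES pH 7.5, 10 mM Mg acetate, 1 mM DTT. ADP-Glo luminescence; IC50 from four-parameter logistic fit.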

Molecules are shown by their SMILES.

T1 sequence (O75116 11-552): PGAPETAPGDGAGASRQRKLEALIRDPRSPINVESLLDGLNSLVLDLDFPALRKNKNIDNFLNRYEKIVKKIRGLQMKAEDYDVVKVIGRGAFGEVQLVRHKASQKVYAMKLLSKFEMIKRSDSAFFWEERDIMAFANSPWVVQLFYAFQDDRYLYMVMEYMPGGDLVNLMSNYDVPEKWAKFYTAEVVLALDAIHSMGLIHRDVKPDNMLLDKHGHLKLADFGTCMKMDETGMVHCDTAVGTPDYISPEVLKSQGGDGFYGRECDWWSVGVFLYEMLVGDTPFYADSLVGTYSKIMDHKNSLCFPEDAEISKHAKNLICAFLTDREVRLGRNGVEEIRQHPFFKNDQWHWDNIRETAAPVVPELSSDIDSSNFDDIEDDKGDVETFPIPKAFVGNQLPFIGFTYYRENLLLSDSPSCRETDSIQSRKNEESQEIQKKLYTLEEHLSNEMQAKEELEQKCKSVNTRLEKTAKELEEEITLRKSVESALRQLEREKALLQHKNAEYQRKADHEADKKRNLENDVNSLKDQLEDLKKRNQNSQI

`CC(C)NC(=O)COc1cccc(-c2nc(Nc3ccc4[nH]ncc4c3)c3ccccc3n2)c1` [KD025]: in the assay with T cells, the “reduction of the ability of T cells to secrete IL-17” value is listed as 60% and the “reduction of the ability of T cells to secrete IL-21” value is on record as 90%.
With `COc1cc(-c2nc(Nc3ccc4[nH]ncc4c3C)n(C)n2)ccc1C(=O)NC1CN(C)C1` [Example 328], the IC50 in assay [1] was in the range of 3 to 10 µM.
Turning to `COc1cc(-c2nc(Nc3ccc4[nH]ncc4c3Cl)n(C)n2)ccc1OCC(=O)NC(C)(C)C` [Example 204, N-tert-butyl-2-[4-[5-[(4-chloro-1H-indazol-5-yl)amino]-1-methyl-1,2,4-triazol-3-yl]-2-methoxy-phenoxy]acetamide], the IC50 in assay [1] was less than 0.3 µM.
On the same count and under the same terms, in the case of `COc1cc(-c2nc(Nc3ccc4[nH]nc(C)c4c3)n(C)n2)ccc1OCC(=O)NC(C)C` [Example 233, N-isopropyl-2-[2-methoxy-4-[1-methyl-5-[(3-methyl-1H-indazol-5-yl)amino]-1,2,4-triazol-3-yl]phenoxy]acetamide] it was less than 0.3 µM; in that of `Cn1nc(-c2ccc3c(c2)CCNC3)nc1Nc1ccc2[nH]ncc2c1Cl` [Example 237, 4-Chloro-N-[2-methyl-5-(1,2,3,4-tetrahydroisoquinolin-6-yl)-1,2,4-triazol-3-yl]-1H-indazol-5-amine], 0.3 to 3 µM.
